Read-outs that look alike come from different tables or passages of the source.
Legend:
[1] = tested on: Bronchial epithelial cells co-cultured with dermal fibroblast (BF4T system); assay: BioMAP BF4T system (TNFα and IL-4); type: cell-based, human; details: Homo sapiens, 24 h; 10 uM; procedure of Example 830; read-out: % increase in VCAM-1
[2] = tested on: Venular Endothelial cells (HUVEC) (4H system); assay: BioMAP 4H system (IL-4 and histamine); type: cell-based, human; details: 1 uM, procedure of Example 826
[3] = tested on: Peripheral blood mononuclear cells co-cultured with venular endothelial cells (HUVEC) (LPS system); assay: BioMAP LPS system; type: cell-based, human; details: procedure of Example 827
[4] = tested on: Peripheral blood mononuclear cells co-cultured with B-cells (BT system); details: 1 uM; procedure of Example 829
[5] = tested on: Leigh Syndrome (LS) primary fibroblasts GM03672; assay: NADP+/NADPH (NADP/NADPH-Glo), Leigh fibroblasts GM03672; type: cell-based; details: Homo sapiens, Fibroblast, 24h, read-out: Increase in Total NADP+ + NADPH
Procedure: Primary adherent fibroblasts were cultured in minimum essential medium (MEM) (Gibco, 25030081) supplemented with 2 mM L-Glutamine (Gibco, 25030081), 15% fetal bovine serum (FBS) (Gibco, 26400044) and 1% penicillin/streptomycin (Gibco, 5140122) at 37° C. and 5% CO2. Cells were collected for either passaging or experiment at ˜70-80% confluence. Cells were obtained by trypsinization and seeded in cell culture microplates either white plate (Thermo Fisher Scientific, 152028) for luminescent measurement or black plate (Thermo Fisher Scientific, 165305) for fluorescent based read out for different assays listed below. Cells were obtained by trypsinization and […] were seeded and allowed to adhere for 16-18 hours to have confluency around 70-80% in the cell well with culture media. After 24 hours prior to measurements (37° C., 5% CO2) media was changed to Dulbecco's Modified Eagle Medium (DMEM, Agilent Seahorse cat #103575-100) with the appropriate supplements as stated below.
Primary fibroblasts assayed were Propionic Acidemia (PA) (GM03590 Coriell Institute for Medical Research, Tsi 6337 Trans-Hit Bio), Methylmalonic Acidemia (MMA) (Tsi 5224 Trans-Hit Bio), Subnormal activation of pyruvate dehydrogenase complex (PDH) (GM01503 Coriell Institute for Medical Research), Very long-chain acyl-CoA dehydrogenase (VLCAD) (GM17475), Leigh Syndrome (LS) (GM03672, GM13411 Coriell Institute for Medical Research), Pyruvate Carboxylase Deficiency (PC) (GM00444 Coriell Institute for Medical Research). 10 μM of Compounds were added for 2 hours in PA, MMA lines and for 24h for the other fibroblast lines.
Assay was performed according to manufacturer instructions (NADP+/NADPH-Glo Assay Promega, G9082). Assay required a plate for total measurement of NADP+/NADPH and a plate for individual measurement of NADP+ or NADPH. For every assay a 12-point standard curve is prepared ranging from 400 nM to 0.625 nM. Media is removed and replaced with 50 μl of PBS for both assays.
For individual NADP+/NADPH measurements, 50 μl of 1% DTAB (Sigma, D5047) (cell lysis reagent) in 0.2N NaOH was added to the plates and 100 μl of lysate was split into two plates with 50 μl each from which ratio of NADP/NADPH can be calculated. 25 μl of 0.4N HCl were added to the NADP+ plates and both NADP+ and NADPH plates were heated at 60° C. for 15 minutes. The acid and heat treatment destroyed NADPH allowing individual NADP+ measurements while heating in basic conditions destroys NADP+ allowing individual NADPH measurement. After 15 minutes plates were allowed to come to room temperature and Trizma base (Sigma, T1699) was added to the NADP+ plates to neutralize the acid and HCl Trizma hydrochloride (Sigma, T2694) was added to the NADPH plates. The NADNADPH glo reagent was prepared by adding 125 μl of NAD cycling substrate, 125 μl of reductase, 125 μl of reductase substrate, 125 μl NAD cycling enzyme to a total of the 25 ml of NAD GLO reagent. 1:1 ratio of total volume of reagent was added to the individual NADP+, NADPH measurements (total 100 μl) and 50 μl were added for the total NAD/NADPH measurements. Luminescence was measured for 30-60 minutes within the linear range.
A total dead cell count was performed as described in Example 817 and only alive cells were used for analysis.

[6] = tested on: Dermal fibroblasts (HDF3CGF system); assay: BioMAP HDF3CGF system (IL-1β, TNFα, IFNγ, EGF, bFGF, PDGF-BB); type: cell-based, human; details: 10 uM; procedure of Example 833
[7] = tested on: Peripheral blood mononuclear cells co-cultured with B-cells (BT system); assay: cells; details: Homo sapiens, 72 h, read-out: % increase in sIL-6
[8] = tested on: Propionic Acidemia (PA) primary fibroblasts GM00371; assay: Mitochondrial respiration, XFe96 Extracellular Flux Analyzer (OCR/ECAR), PA fibroblasts GM00371; type: cell-based; details: Homo sapiens, Fibroblast, read-out: Increase in Maximal Respiratory Capacity AUC
[9] = tested on: primary fibroblasts (healthy controls and PA, MMA, BCKDK, PDH, VLCAD, LS, PC, GA, VLCFA, KSS, FXN, HD); assay: Measurement of ROS (H2DCFDA) in primary fibroblasts; type: cell-based, human; details: Homo sapiens, Fibroblast; HD GM21756; procedure Example 812; Assay Condition C; read-out: Decreased ROS by at least 30%
Summary of the method: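 Patient and healthy-control primary fibroblasts switched to supplemented DMEM 24 h before assay, then treated with compound (10 μM) plus H2DCFDA (22 μM) for 2 h (PA, MMA lines) or 24 h (other lines). Kinetic fluorescence at 492/527 nm over 60 min; only live cells analysed.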

[10] = tested on: primary fibroblasts GM00649, GM06225, GM00612, GM00444, GM03672; assay: MMP, ROS and ATP multiplex (ArrayScan); type: cell-based; details: Homo sapiens, Fibroblast; Leigh GM03672; procedure Example 838; 50 μM (table line r25); read-out: Decreased ROS by at least 10%
Procedure: Cell culture and treatments. Primary adherent fibroblasts were cultured in minimum essential medium (MEM) (Gibco, 25030081) supplemented with 2 mM L-Glutamine (Gibco, 25030081), 15% fetal bovine serum (FBS) (Gibco, 26400044) and 1% penicillin/streptomycin (Gibco, 5140122) at 37° C. and 5% CO2. Cells were collected for either passaging or experiment at ˜70-80% confluence. Cells were obtained by trypsinization and seeded at 10000 cells/well in cell culture microplates (Seahorse Bioscience, 101085-004) and allowed to adhere for 16 hours in culture media. After media was refreshed with DMEM (Agilent Seahorse 103575-100) supplemented with 1 mM glucose and 10% FBS (Gibco, 26400044). At the end of the incubation period, the cells were loaded with the relevant dye/antibody for each cell health marker. The assay provided simultaneous measurement of cell health parameters including cell count, ROS formation (DHE), mitochondrial membrane potential (MitoTracker®) and cellular ATP content (CellTiter-Glo®, Promega). The plates were then scanned using an automated fluorescent cellular imager, ArrayScan® (Thermo Scientific Cellomics). Assay conditions were optimized by one skilled in the art.
Primary cells used in this example were obtained from Coriell Institute for Medical Research and consisted of GM00649, MSUD (Maple Syrup Urine Disease) Tyle IA; GM06225, Kearns-Sayre Syndrome; GM00612, MSUD (Maple Syrup Urine Disease) Tyle II GM00444, Pyruvate Carboxylase Deficiency and GM03672, Leigh Syndrome.

[11] = tested on: Methylmalonic Acidemia (MMA) primary fibroblasts GM01673; assay: Mitochondrial respiration, XFe96 Extracellular Flux Analyzer (OCR/ECAR), MMA fibroblasts GM01673; type: cell-based; details: Homo sapiens, Fibroblast, assay condition A (10 mM glucose, 2 mM L-glutamine, 1 mM pyruvate, 10% FBS), 50 μM, read-out: Increase in Maximal Respiratory Capacity AUC
Procedure: The effect of the compounds of the present disclosure on mitochondrial respiration was measured with a XFe96 Extracellular Flux Analyzer (Seahorse Bioscience, Agilent Technologies) and Oxygen consumption Rate (OCR) and Extracellular acidification rate (ECAR) determined.
Cell culture and treatments. Primary adherent fibroblasts were cultured in minimum essential medium (MEM) (Gibco, 25030081) supplemented with 2 mM L-Glutamine (Gibco, 25030081), 15% fetal bovine serum (FBS) (Gibco, 26400044) and 1% penicillin/streptomycin (Gibco, 5140122) at 37° C. and 5% CO2. Cells were collected for either passaging or experiment at ˜70-80% confluence. Cells were obtained by trypsinization and seeded at 20000 cells/well in cell culture microplates (Seahorse Bioscience, 101085-004) and allowed to adhere for 16 hours in culture media.
By profiling different primary cells and/or optimizing their culture media or environmental components one can select cell lines and/or conditions that are appropriate for the biological or disease model. In the present example, 24 hours prior to OCR and ECAR profiling, media was changed to Dulbecco's Modified Eagle Medium (DMEM, Agilent Seahorse 103575-100) with the appropriate supplements for the different primary cells (10 mM glucose, 2 mM L-glutamine, 1 mM pyruvate, 10% FBS; 1 mM glucose, 2 mM L-glutamine, 1 mM pyruvate, 10% FBS; 10 mM glucose, 10% FBS; 5 mM glucose 10% FBS; 1 mM glucose 10% FBS). Cells used in this example were: Propionic Acidemia (PA) (GM00371, GM03590 Coriell Institute for Medical Research, Tsi 6337, Tsi 4626, Tsi 3618 Trans-Hit Bio), Methylmalonic Acidemia (MMA) (GM01673, Coriell Institute for Medical Research, Tsi 5224 Trans-Hit Bio), Branched chain ketoacid dehydrogenase kinase (BCKDK) (GM00612, GM00649 Coriell Institute for Medical Research), Subnormal activation of pyruvate dehydrogenase complex (PDH) (GM01503 Coriell Institute for Medical Research), Very long-chain acyl-CoA dehydrogenase (VLCAD) (GM17475), Leigh Syndrome (LS) (GM03672, GM13411 Coriell Institute for Medical Research), Pyruvate Carboxylase Deficiency (PC) (GM00444 Coriell Institute for Medical Research), Glutaric Acidemia-I (GA) (GM10653), Friedreich's Ataxia (FXN) (GM04078 Coriell Institute for Medical Research, Huntington's disease (HD) (GM21756 Coriell Institute for Medical Research), Ornithine Transcarbamylase Deficiency (OTC) (GM12756 Coriell Institute for Medical Research), Kearns-Sayre Syndrome (KSS) (GM06225 Coriell Institute for Medical Research).
One hour before the assay, the cells were washed with freshly prepared unbuffered serum free-Seahorse XF Assay medium (Seahorse Bioscience, North America, USA, 103575-100) with the same supplements as for the previous 24 hour incubation.
After baseline measurements of OCR, cells were challenged with compounds of the present disclosure at different concentrations (10 to 50 μM) or vehicle (DMSO, 0.1%) and a post-compound baseline was recorded. OCR was measured after sequentially adding to each well 1 μg/ml oligomycin (inhibitor of ATP synthase Sigma-Aldrich, 753531), then maximal OCR was determined with carbonyl cyanide 4-(trifluoromethoxy) phenylhydrazone (FCCP, Sigma-Aldrich, C2920), (uncoupler of oxidative phosphorylation) and 0.5 μM of rotenone (Sigma-Aldrich, R8875) plus antimycin A (Sigma-Aldrich, A8674) (inhibitors of mitochondrial complex I and III) for determination of rotenone-antimycin insensitive respiration together with Hoechst for nuclear staining in situ when normalized to cell counts. After the analysis and nuclear staining, the XFp microplate was transferred to the Cytation 5, and the nuclear images were captured, the individual nuclei were identified and counted by BioTek Gen5 software. Data were expressed as pmol of O2 per minute and normalized by nuclear staining and baselined to pre-compound addition.
Assay conditions were as stated below.
Assay specifics on assay conditions are indicated below when readouts were normalized to cell counts. […]

`CC(C)(CO)[C@@H](O)C(=O)NCCC(=O)NCCSC(CC(=O)O)C(=O)O` (stereo partly drawn) [Compound 46, 2-[(2-[3-[(2R)-2,4-dihydroxy-3,3-dimethylbutanamido]propanamido]ethyl)sulfanyl]butanedioic acid] was tested, and the activation at 10 µM [1] was no less than 10%, the “% increase in E-Selectin” value [2] was no less than 10% and the inhibition at 1 µM ([2]; Homo sapiens, HUVEC, 24 h, read-out: % decrease in E-Selectin) was no less than 10%. For the same molecule, the “% increase in sPGE2” value ([3]; 1 uM) was no less than 10%, the activation at 10 µM ([3]; Homo sapiens, HUVEC, 24 h, 10 uM, read-out: % increase in sTNFα) was no less than 10% and the “% decrease in B-cell proliferation” value [4] was no less than 20%. For the same molecule, the “% decrease in sIL-2” value [4] was no less than 20%, the “% decrease in sTNFα” value [4] was no less than 20% and the activation at 10 µM ([5]; Leigh GM03672 P8, assay condition B (1 mM glucose, 2 mM L-glutamine, 1 mM pyruvate, 10% FBS)) was no less than 10%. The “% decrease in Collagen I” value [6] was no less than 10%, the activation at 10 µM [7] was no less than 10% and the activation at 50 µM ([8]; assay condition C (10 mM glucose, 10% FBS), 50 μM) was no less than 10%.
For `CCC(=O)SCCNC(=O)CCNC(=O)[C@H](O)C(C)(C)CO` [Compound 398, (2R)-2,4-dihydroxy-3,3-dimethyl-N-(2-[[2-(propanoylsulfanyl)ethyl]carbamoyl]ethyl)butanamide], the inhibition at 10 µM [9] was no less than 30%, the activation at 10 µM ([5]; Leigh GM03672 P9, assay condition A (10 mM glucose, 2 mM L-glutamine, 1 mM pyruvate, 10% FBS)) was no less than 10% and the activation at 10 µM ([8]; assay condition D (1 mM glucose, 10% FBS), 10 μM) was no less than 10%.
For `CCOC(=O)C(=O)SCCNC(=O)CCNC(=O)[C@H](O)C(C)(C)COP(=O)(O)O` [Compound 61], the inhibition at 50 µM [10] was no less than 10% and the activation at 50 µM [11] was no less than 10%.
